Experimental data reported in patent US6756373B1, “Pharmaceutically active compounds” (Pfizer Inc., priority 1999, dated 2004).
pIC50: −log10 of the molar value.

Assays:
cGMP PDE5 = cGMP PDE5 (UniProt O76074); assay: Phosphodiesterase (PDE) inhibitory activity: in vitro inhibition of cGMP PDE5 (batch method or scintillation proximity assay); conditions: in vitro activity as inhibitors of cGMP PDE5
Procedure: Phosphodiesterases 7-11 were generated from full length human recombinant clones transfected into SF9 cells.
In summary, the effect of PDE inhibitors was investigated by assaying a fixed amount of enzyme in the presence of varying inhibitor concentrations and low substrate, (cGMP or cAMP in a 3:1 ratio unlabelled to [^3H]-labeled at a conc ˜1/3 Km) such that IC50≅Ki. The final assay volume was made up to 100 μl with assay buffer [20 mM Tris-HCl pH 7.4, 5 mM MgCl2, 1 mg/ml bovine serum albumin].

Row | Compound | pIC50 (cGMP PDE5) | melting point
1 | CCCCOc1ncc(C(=O)N(C)OC)cc1-c1nc2c(CC)n(CCOC)nc2c(=O)[nH]1 [Example 5, 6-Butoxy-5-[3-ethyl-2-(2-methoxyethyl)-7-oxo-6,7-dihydro-2H-pyrazolo[4,3-d]pyrimidin-5-yl]-N-methoxy-N-methylnicotinamide] | 8.07 | 
2 | CCCCOc1ncc(C(C)=O)cc1-c1nc2c(CC)n(CCOC)nc2c(=O)[nH]1 [Example 16, 5-(5-Acetyl-2-butoxy-3-pyridinyl)-3-ethyl-2-(2-methoxyethyl)-2,6-dihydro-7H-pyrazolo[4,3-d]pyrimidin-7-one] | 8.18 | 
3 | CCCCOc1ncc(C(=O)CN2CCOCC2)cc1-c1nc2c(CC)n(CCOC)nc2c(=O)[nH]1 [Example 34, 5-[2-Butoxy-5-(4-morpholinylacetyl)-3-pyridinyl]-3-ethyl-2-(2-methoxyethyl)-2,6-dihydro-7H-pyrazolo[4,3-d]pyrimidin-7-one] | 7.51 | 
4 | CCCCOc1ncc(C(C)=O)cc1-c1nc2c(CC)n(CCN3CCOCC3)nc2c(=O)[nH]1 [Example 48] | 8.61 | 
5 | CCCCOc1ncc(C(C)=O)cc1-c1nc2c(CC)n(C3CCNCC3)nc2c(=O)[nH]1 [Example 49, 5-(5-Acetyl-2-butoxy-3-pyridinyl)-3-ethyl-2-(4-piperidinyl)-2,6-dihydro-7H-pyrazolo[4,3-d]pyrimidin-7-one] | 7.74 | 
6 | CCOc1ncc(C(C)=O)cc1-c1nc2c(-c3ccc(N(C)C)nc3)n(C)nc2c(=O)[nH]1 [Example 59, 5-(5-Acetyl-2-ethoxy-3-pyridinyl)-3-[6-(dimethylamino)-3-pyridinyl]-2-methyl-2,6-dihydro-7H-pyrazolo[4,3-d]pyrimidin-7-one] | 8.85 | 
7 | CCCOc1ncc(I)cc1-c1nc2c(CC)nn(CC(=O)OC(C)(C)C)c2c(=O)[nH]1 [Example 64, tert-butyl [3-ethyl-5-(5-iodo-2-propoxy-3-pyridinyl)-7-oxo-6,7-dihydro-1H-pyrazolo[4,3-d]pyrimidin-1-yl]acetate] | 8.15 | 
8 | CCCOc1ncc(I)cc1-c1nc2c(CC)n(CC(=O)OC(C)(C)C)nc2c(=O)[nH]1 [Example 65, tert-butyl [3-ethyl-5-(5-iodo-2-propoxy-3-pyridinyl)-7-oxo-6,7-dihydro-2H-pyrazolo[4,3-d]-pyrimidin-2-yl]acetate] | 8.40 | 
9 | CCCOc1ncc(-c2nnn[nH]2)cc1-c1nc2c(CCC)nn(C)c2c(=O)[nH]1 [Example 71, 1-Methyl-5-[2-propoxy-5-(1H-tetrazol-5-yl)-3-pyridinyl]-3-propyl-1,6-dihydro-7H-pyrazolo[4,3-d]pyrimidin-7-one] | 9.00 | 
10 | CCCOc1ncc(C#CC(=O)OCC)cc1-c1nc2c(CCC)nn(C)c2c(=O)[nH]1 [Example 72] | 9.52 | 
11 | CCCOc1ncc(-c2cc(O)no2)cc1-c1nc2c(CCC)nn(C)c2c(=O)[nH]1 [Example 73, 5-[5-(3-Hydroxy-5-isoxazolyl)-2-propoxy-3-pyridinyl]-1-methyl-3-propyl-1,6-dihydro-7H-pyrazolo[4,3-d]pyrimidin-7-one] | 8.30 | 239 to 241 °C
12 | CCCOc1ncc(NCC(=O)O)cc1-c1nc2c(CCC)nn(C)c2c(=O)[nH]1 [Example 75, {[5-(1-Methyl-7-oxo-3-propyl-6,7-dihydro-1H-pyrazolo[4,3-d]pyrimidin-5-yl)-6-propoxy-3-pyridinyl]amino}acetic Acid] | 8.30 | 
13 | CCCOc1ncc(N(S(C)(=O)=O)S(C)(=O)=O)cc1-c1nc2c(CCC)nn(C)c2c(=O)[nH]1 [Example 76, N-[5-(1-Methyl-7-oxo-3-propyl-6,7-dihydro-1H-pyrazolo[4,3-d]pyrimidin-5-yl)-6-propoxy-3-pyridinyl]-N-(methylsulfonyl)methanesulfonamide] | 8.52 | 
14 | CCCOc1ncc(NS(C)(=O)=O)cc1-c1nc2c(CCC)nn(C)c2c(=O)[nH]1 [Example 77, N-[5-(1-Methyl-7-oxo-3-propyl-6,7-dihydro-1H-pyrazolo[4,3-d]pyrimidin-5-yl)-6-propoxy-3-pyridinyl]methanesulfonamide] | 9.05 | 
15 | CCCOc1ncc(NC(=O)CC(=O)OC)cc1-c1nc2c(CCC)nn(C)c2c(=O)[nH]1 [Example 78, Methyl 3-{[5-(1-methyl-7-oxo-3-propyl-6,7-dihydro-1H-pyrazolo[4,3-d]-pyrimidin-5-yl)-6-propoxy-3-pyridinyl]amino}-3-oxopropanoate] | 9.52 | 
16 | CCCOc1ncc(NC(=O)CC(=O)O)cc1-c1nc2c(CCC)nn(C)c2c(=O)[nH]1 [Example 79, N-[5-(1-Methyl-7-oxo-3-propyl-6,7-dihydro-1H-pyrazolo[4,3-d]pyrimidin-5-yl)-6-propoxy-3-pyridinyl]-3-oxo-β-alanine] | 8.80 | 261 to 262 °C
17 | CCCOc1ncc(NS(=O)(=O)CC(=O)O)cc1-c1nc2c(CCC)nn(C)c2c(=O)[nH]1 [Example 80, ({[5-(1-Methyl-7-oxo-3-propyl-6,7-dihydro-1H-pyrazolo[4,3-d]pyrimidin-5-yl)-6-propoxy-3-pyridinyl]amino}sulfonyl)acetic Acid] | 9.05 | 267 to 270 °C
18 | CCCOc1ncc(N2CCN(S(=O)(=O)c3ccc(C)cc3)CC2)cc1-c1nc2c(CCC)nn(C)c2c(=O)[nH]1 [Example 81, 1-Methyl-5-(5-{4-[(4-methylphenyl)sulfonyl]-1-piperazinyl}-2-propoxy-3-pyridinyl)-3-propyl-1,6-dihydro-7H-pyrazolo[4,3-d]pyrimidin-7-one] | 8.70 | 
19 | CCCOc1ncc(NCC(=O)OC)cc1-c1nc2c(CCC)nn(C)c2c(=O)[nH]1 [Example 82, Methyl {[5-(1-Methyl-7-oxo-3-propyl-6,7-dihydro-1H-pyrazolo[4,3-d]pyrimidin-5-yl)-6-propoxy-3-pyridinyl]amino}acetate] | 8.40 | 175 °C
20 | CCCOc1ncc(NC(C)C(=O)OC)cc1-c1nc2c(CCC)nn(C)c2c(=O)[nH]1 (centres unmarked) [Example 83, Methyl 2-{[5-(1-Methyl-7-oxo-3-propyl-6,7-dihydro-1H-pyrazolo[4,3-d]-pyrimidin-5-yl)-6-propoxy-3-pyridinyl]amino}propanoate] | 8.70 | 185 to 187 °C
21 | CCCOc1ncc(N[C@@H](C)C(=O)O)cc1-c1nc2c(CCC)nn(C)c2c(=O)[nH]1 [Example 84, N-[5-(1-Methyl-7-oxo-3-propyl-6,7-dihydro-1H-pyrazolo[4,3-d]pyrimidin-5-yl)-6-propoxy-3-pyridinyl]alanine] | 8.12 | 
22 | CCCCOc1ncc(C(C)=O)cc1-c1nc2c(CC)n(C3CCN(C(C)=O)CC3)nc2c(=O)[nH]1 [Example 131, 5-(5-Acetyl-2-butoxy-3-pyridinyl)-2-(1-acetyl-4-piperidinyl)-3-ethyl-2,6-dihydro-7H-pyrazolo[4,3-d]pyrimidin-7-one] |  | 156 to 157 °C
23 | CCc1c2nc(-c3cc(C(C)=O)cnc3OCC(C)C)[nH]c(=O)c2nn1C1CCN(C)CC1 [Example 135, 5-(5-Acetyl-2-isobutoxy-3-pyridinyl)-3-ethyl-2-(1-methyl-4-piperidinyl)-2,6-dihydro-7H-pyrazolo[4,3-d]pyrimidin-7-one] |  | 195 to 196 °C
24 | CCOc1ncc(C(C)=O)cc1-c1nc2c(CC)nn(Cc3nccn3C)c2c(=O)[nH]1 [Example 138, 5-(5-Acetyl-2-ethoxy-3-pyridinyl)-3-ethyl-1-[(1-methyl-1H-imidazol-2-yl)methyl]-1,6-dihydro-7H -pyrazolo[4,3-d]pyrimidin-7-one] |  | 217.9 to 218.7 °C
